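Cultured in 96-well plates, cells were exposed to test compound for 48 hours across five concentrations. GI50 is the concentration that inhibits growth by half. TGI: total growth inhibition.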
Columns and labels:
Assay in all cases: NCI-60 cell line screen, 48 h
[1] = system: NCI-H23 lung
[2] = system: CCRF-CEM leukemia
[3] = system: HS 578T breast
[4] = system: SF-295 CNS
[5] = system: IGROV1 ovarian
[6] = system: 786-0 renal
[7] = system: RPMI-8226 leukemia
[8] = system: UACC-257 melanoma
[9] = system: SK-MEL-5 melanoma
[10] = system: HCT-116 colon
[11] = system: CAKI-1 renal
[12] = system: OVCAR-8 ovarian
[13] = system: HT29 colon
[14] = system: M14 melanoma
[15] = system: HCC-2998 colon
[16] = system: COLO 205 colon
[17] = system: HOP-62 NSCLC
[18] = system: EKVX NSCLC
[19] = system: DU-145 prostate
[20] = system: NCI-H460 lung
[21] = system: HCT-15 colon
[22] = system: SN12C renal
[23] = system: RXF 393 renal
[24] = system: SK-OV-3 ovarian
[25] = system: UO-31 renal
[26] = system: OVCAR-3 ovarian
[27] = system: MDA-MB-435
[28] = system: SNB-75 CNS
[29] = system: SNB-19 CNS
[30] = system: A498 renal
[31] = system: PC-3 prostate
[32] = system: MCF7 breast
[33] = system: OVCAR-5 ovarian
[34] = system: SK-MEL-2 melanoma
[35] = system: NCI/ADR-RES ovarian
[36] = system: T-47D breast
[37] = system: BT-549 breast
[38] = system: SF-268 CNS
[39] = system: SK-MEL-28 melanoma
[40] = system: NCI-H226 lung
[41] = system: SF-539 CNS
[42] = system: UACC-62 melanoma
[43] = system: HOP-92 NSCLC
[44] = system: OVCAR-4 ovarian
[45] = system: MDA-MB-231 breast
[46] = system: U251 CNS
[47] = system: SW-620 colon
[48] = system: A549 NSCLC
[49] = system: NCI-H522 lung
[50] = system: LOX IMVI melanoma
[51] = system: ACHN renal
[52] = system: MALME-3M melanoma
[53] = system: K-562 leukemia
[54] = system: TK-10 renal
[55] = system: KM12 colon
[56] = system: MOLT-4 leukemia

`Nc1ncc2ccc3c(ccn3C3CC(O)C(CO)O3)c2n1` (configuration not stated) was tested, and the GI50 [1] was over 100 µM, the TGI [1] was over 100 µM and the GI50 [2] was over 100 µM. It also gave a TGI [2] of over 100 µM, a GI50 [3] of over 100 µM and a TGI [3] of over 100 µM. The GI50 [4] was over 100 µM, the TGI [4] was over 100 µM and the GI50 [5] was over 100 µM. The TGI [5] was over 100 µM, the GI50 [6] was over 100 µM and the TGI [6] was over 100 µM. For the same compound, the GI50 [7] was over 100 µM, the TGI [7] was over 100 µM and the GI50 [8] was over 100 µM. For the same compound, the TGI [8] was over 100 µM, the GI50 [9] was over 100 µM and the TGI [9] was over 100 µM. It also gave a GI50 [10] of over 100 µM, a TGI [10] of over 100 µM and a GI50 [11] of over 100 µM. The TGI [11] was over 100 µM, the GI50 [12] was over 100 µM and the TGI [12] was over 100 µM. For the same compound, the GI50 [13] was over 100 µM, the TGI [13] was over 100 µM and the GI50 [14] was over 100 µM. It also gave a TGI [14] of over 100 µM, a GI50 [15] of over 100 µM and a TGI [15] of over 100 µM. For the same compound, the GI50 [16] was over 100 µM, the TGI [16] was over 100 µM and the GI50 [17] was over 100 µM. It also gave a TGI [17] of over 100 µM, a GI50 [18] of over 100 µM and a TGI [18] of over 100 µM. The GI50 [19] was over 100 µM, the TGI [19] was over 100 µM and the GI50 [20] was over 100 µM. The TGI [20] was over 100 µM, the GI50 [21] was over 100 µM and the TGI [21] was over 100 µM. For the same compound, the GI50 [22] was over 100 µM, the TGI [22] was over 100 µM and the GI50 [23] was over 100 µM. The TGI [23] was over 100 µM, the GI50 [24] was over 100 µM and the TGI [24] was over 100 µM. For the same compound, the GI50 [25] was over 100 µM, the TGI [25] was over 100 µM and the GI50 [26] was over 100 µM. It also gave a TGI [26] of over 100 µM, a GI50 [27] of over 100 µM and a TGI [27] of over 100 µM. The GI50 [28] was 42.4 µM, the TGI [28] was over 100 µM and the GI50 [29] was over 100 µM. For the same compound, the TGI [29] was over 100 µM, the GI50 [30] was 18.3 µM and the TGI [30] was over 100 µM. It also gave a GI50 [31] of over 100 µM, a TGI [31] of over 100 µM and a GI50 [32] of 87.2 µM. For the same compound, the TGI [32] was over 100 µM, the GI50 [33] was over 100 µM and the TGI [33] was over 100 µM. It also gave a GI50 [34] of over 100 µM, a TGI [34] of over 100 µM and a GI50 [35] of over 100 µM. It also gave a TGI [35] of over 100 µM, a GI50 [36] of over 100 µM and a TGI [36] of over 100 µM. It also gave a GI50 [37] of over 100 µM, a TGI [37] of over 100 µM and a GI50 [38] of over 100 µM. For the same compound, the TGI [38] was over 100 µM, the GI50 [39] was over 100 µM and the TGI [39] was over 100 µM. It also gave a GI50 [40] of over 100 µM, a TGI [40] of over 100 µM and a GI50 [41] of over 100 µM. For the same compound, the TGI [41] was over 100 µM, the GI50 [42] was over 100 µM and the TGI [42] was over 100 µM. It also gave a GI50 [43] of over 100 µM, a TGI [43] of over 100 µM and a GI50 [44] of over 100 µM. The TGI [44] was over 100 µM, the GI50 [45] was over 100 µM and the TGI [45] was over 100 µM. The GI50 [46] was over 100 µM, the TGI [46] was over 100 µM and the GI50 [47] was over 100 µM. It also gave a TGI [47] of over 100 µM, a GI50 [48] of over 100 µM and a TGI [48] of over 100 µM. It also gave a GI50 [49] of over 100 µM, a TGI [49] of over 100 µM and a GI50 [50] of over 100 µM. For the same compound, the TGI [50] was over 100 µM.
`CO[C@@H]1[C@H](O)CC[C@]2(CO2)[C@H]1[C@@]1(C)O[C@@H]1CC=C(C)C` gave a TGI [1] of over 200 µM, a TGI [2] of over 200 µM and a TGI [3] of over 200 µM. The TGI [4] was over 200 µM, the TGI [5] was over 200 µM and the TGI [6] was over 200 µM. It also gave a TGI [7] of over 200 µM, a TGI [51] of over 200 µM and a TGI [9] of over 200 µM. It also gave a TGI [10] of over 200 µM, a TGI [11] of over 200 µM and a TGI [13] of over 200 µM. It also gave a TGI [14] of over 200 µM, a TGI [16] of over 200 µM and a TGI [17] of over 200 µM. The TGI [18] was over 200 µM, the TGI [19] was over 200 µM and the TGI [52] was over 200 µM. For the same compound, the TGI [20] was over 200 µM, the TGI [21] was over 200 µM and the TGI [22] was over 200 µM. It also gave a TGI [23] of over 200 µM, a TGI [24] of over 200 µM and a TGI [25] of over 200 µM. For the same compound, the TGI [26] was over 200 µM, the TGI [27] was over 200 µM and the TGI [28] was over 200 µM. For the same compound, the TGI [29] was over 200 µM, the TGI [30] was over 200 µM and the TGI [31] was over 200 µM. The TGI [53] was over 200 µM, the TGI [32] was over 200 µM and the TGI [33] was over 200 µM. For the same compound, the TGI [34] was over 200 µM, the TGI [35] was over 200 µM and the TGI [36] was over 200 µM. It also gave a TGI [37] of over 200 µM, a TGI [54] of over 200 µM and a TGI [38] of over 200 µM. It also gave a TGI [39] of over 200 µM, a TGI [40] of over 200 µM and a TGI [41] of over 200 µM. For the same compound, the TGI [55] was over 200 µM, the TGI [42] was over 200 µM and the TGI [43] was over 200 µM. The TGI [44] was over 200 µM, the TGI [45] was over 200 µM and the TGI [46] was over 200 µM. The TGI [47] was over 200 µM, the TGI [56] was over 200 µM and the TGI [49] was over 200 µM. The TGI [50] was over 200 µM.

— PubChem BioAssay (NCI)
